Source: US20250042922A1, “KRAS MODULATING COMPOUNDS” (priority 2023, published 2025)
pEC50: −log10 of the molar value.

Experiments:
[1] = test system: cellular pERK in ASPC-1 (KRAS G12D) cells; assay: Cell based pERK assay, ASPC-1; conditions: Homo sapiens, ASPC1; ASPC-1 (KRAS G12D), 2 hours incubation, HTRF phospho-ERK1/2; read-out: AsPC1 pERK EC50
Procedure: (§1) Compounds were tested in a 384-well assay format for their ability to inhibit cellular pERK in Kuramochi (WT KRAS), MIA-PaCa-2 (KRAS-G12C), ASPC-1 (KRAS G12D), and NCI-H441 (KRAS-G12V) cell-lines. Compounds were serially diluted (1:3) in DMSO. On day −1, 80 μL of cells were plated per well in the 384 well tissue-culture plates (Greiner: Cat #781080) to seed 5000 cells per wells of AsPC-1 or 7500 cells of MIA-PaCa-2, NCI-H441, and Kuramochi cell lines in RPMI (Corning: Cat #10-040-CM) with 10% fetal bovine serum (FBS) (HyClone: Cat #SH30071-03) and 1× penicillin-streptomycin-glutamate (PSG) (Corning: Cat #30-009-CI) for […] and Kuramochi cell lines and DMEM (Corning: Cat #15-018-CM) with 10% FBS and 1×PSG for MIA-PaCa-2 cell line. The plates were then incubated overnight at 37° C. and 5% CO2. On day 0, 400 nL of compound/well was added into the cell plates and mixed 5 times by pipetting using a Beckmann Biomek FX. The cell plates were then incubated for 2 hours at 37° C. and 5% CO2. HTRF Advanced Phospho-ERK1/2 (THR202/TYR204) Detection Kits (PerkinElmer: Cat #64AERPEG) were used to prepare the lysis and detection solution according to manufacturer protocol. Following the 2 hour incubation, 70 μL of medium was aspirated from the plates and 10 uL of lysis and detection solution was added to the plates using a Biotek EL406 washer and dispenser. Plates were sealed and stored overnight at room temperature. HTRF ratio (665 nm/615 nm) was read by Envision multimode reader (PerkinElmer) the next day. The TR-FRET ratios were normalized to a positive (saturating concentration of known inhibitor) and negative (DMSO) control and plotted against the log of compound concentration.

[2] = test system: cellular pERK in Kuramochi (WT KRAS) cells; assay: Cell based pERK assay, Kuramochi; conditions: Kuramochi (WT KRAS), 2 hours incubation, HTRF phospho-ERK1/2; read-out: Kuramochi pERK EC50
Procedure: as §1

[3] = test system: cellular pERK in NCI-H441 (KRAS-G12V) cells; assay: Cell based pERK assay, NCI-H441; conditions: Homo sapiens; NCI-H441 (KRAS-G12V), 2 hours incubation, HTRF phospho-ERK1/2; read-out: H441 PERK EC50
Procedure: as §1

[4] = test system: cellular pERK in MIA-PaCa-2 (KRAS-G12C) cells; assay: Cell based pERK assay, MIA-PaCa-2; conditions: Homo sapiens; MIA-PaCa-2 (KRAS-G12C), 2 hours incubation, HTRF phospho-ERK1/2; read-out: MIAPaCa2 pERK EC50
Procedure: as §1

Compound | pEC50 [1] | pEC50 [2] | pEC50 [3] | pEC50 [4]
CCc1c(F)ccc2cc(O)cc(-c3nc4c5c(nc(OC[C@@]67CCCN6C[C@H](F)C7)nc5c3F)N3C[C@@]5(F)CC[C@H](N5)[C@H]3CC4)c12 [Example 2-1, 4-((5aR,6S,9S)-1,9-difluoro-12-(((2R,7aS)-2-fluorotetrahydro-1H-pyrrolizin-7a(5H)-yl)methoxy)-4,5,5a,6,7,8,9,10-octahydro-3,10a,11,13,14-pentaaza-6,9-methanonaphtho[1,8-ab]heptalen-2-yl)-5-ethyl-6-fluoronaphthalen-2-ol] | 7.26 | 8.85 | 8.35 | 8.52
C#Cc1c(F)ccc2cc(O)cc(-c3nc4c5c(nc(OC[C@@]67CCCN6C[C@H](F)C7)nc5c3F)N3C[C@@]5(F)CC[C@](F)(N5)[C@H]3CC4)c12 [Example 3-1, 5-ethynyl-6-fluoro-4-((5aR,6R,9S)-1,6,9-trifluoro-12-(((2R,7aS)-2-fluorotetrahydro-1H-pyrrolizin-7a(5H)-yl)methoxy)-4,5,5a,6,7,8,9,10-octahydro-3,10a,11,13,14-pentaaza-6,9-methanonaphtho[1,8-ab]heptalen-2-yl)naphthalen-2-ol] | 8.49 | 8.95 | 8.90 | 9.05
C#Cc1c(F)ccc2cc(O)cc(-c3nc4c5c(nc(OC[C@@]67CCCN6C[C@H](F)C7)nc5c3F)N3C[C@@]5(F)CC[C@](F)(N5)[C@H]3CCC4)c12 [Example 4-1, 5-ethynyl-6-fluoro-4-((6aR,7R,10S)-1,7,10-trifluoro-13-(((2R,7aS)-2-fluorotetrahydro-1H-pyrrolizin-7a(5H)-yl)methoxy)-5,6,6a,7,8,9,10,11-octahydro-4H-3,11a,12,14,15-pentaaza-7,10-methanocyclohepta[4,5]cycloocta[1,2,3-de]naphthalen-2-yl)naphthalen-2-ol] | 8.87 | 8.85 | 9.77 | 9.31
C#Cc1c(F)ccc2cc(N)cc(-c3nc4c5c(nc(OCC67CCCN6CCC7)nc5c3F)N3C[C@@]5(F)CC[C@](F)(N5)[C@H]3CCC4)c12 [Example 4-6, 5-ethynyl-6-fluoro-4-((6aR,7R,10S)-1,7,10-trifluoro-13-((tetrahydro-1H-pyrrolizin-7a(5H)-yl)methoxy)-5,6,6a,7,8,9,10,11-octahydro-4H-3,11a,12,14,15-pentaaza-7,10-methanocyclohepta[4,5]cycloocta[1,2,3-de]naphthalen-2-yl)naphthalen-2-amine] | 7.51 | 8.70 | 8.19 | 8.87
C#Cc1c(F)ccc2cc(O)cc(-c3nc4c5c(nc(OCC67CCCN6CCC7)nc5c3F)N3C[C@@]5(F)CC[C@](F)(N5)[C@@H]3[C@@H](C)C4)c12 [Example 4-10, 5-ethynyl-6-fluoro-4-((5S,5aS,6R,9S)-1,6,9-trifluoro-5-methyl-12-((tetrahydro-1H-pyrrolizin-7a(5H)-yl)methoxy)-4,5,5a,6,7,8,9,10-octahydro-3,10a,11,13,14-pentaaza-6,9-methanonaphtho[1,8-ab]heptalen-2-yl)naphthalen-2-ol] | 8.23 | 7.94 | 8.49 | 9.61
C#Cc1c(F)ccc2cc(O)cc(-c3nc4c5c(nc(OC[C@@]67CCCN6C[C@H](F)C7)nc5c3F)N3C[C@@]5(F)CC[C@H](N5)[C@H]3C=C4C)c12 [Example 4-15, 4-((5aR,6S,9S)-1,9-difluoro-12-(((2R,7aS)-2-fluorotetrahydro-1H-pyrrolizin-7a(5H)-yl)methoxy)-4-methyl-5a,6,7,8,9,10-hexahydro-3,10a,11,13,14-pentaaza-6,9-methanonaphtho[1,8-ab]heptalen-2-yl)-5-ethynyl-6-fluoronaphthalen-2-ol] | 7.01 | 8.35 | 7.66 | 8.39
